What all share (format): functional
Assay [1] relates to Brassica rapa subsp. oleifera. Briefly: Herbicidal activity against Brassica rapa subsp. oleifera assessed as inhibition of root growth at 100 ug/ml after 65 hr by rape cup test. The following applies: read-out: GI.
Assay [2] has as its system Echinochloa crus-galli. Kind of assay: Herbicidal activity against Echinochloa crus-galli (barnyard grass) plants assessed as inhibition of seedling growth at 100 ug/ml after 65 hr by barnyard cup test. The following applies: read-out: GI.
Assay [3] has as its system Echinochloa crus-galli. Kind of assay: Herbicidal activity against Echinochloa crus-galli (barnyard grass) plants assessed as inhibition of seedling growth at 1000 ug/ml after 65 hr by barnyard cup test. Conditions: read-out: GI.
For assay [4], the system named is Brassica rapa subsp. oleifera. Kind of assay: Herbicidal activity against Brassica rapa subsp. oleifera assessed as inhibition of root growth at 1000 ug/ml after 65 hr by rape cup test. The following applies: read-out: GI.
For assay [5], the system named is Brassica rapa subsp. oleifera. Kind of assay: Herbicidal activity against Brassica rapa subsp. oleifera assessed as inhibition of root growth at 10 ug/ml after 65 hr by rape cup test. Conditions: read-out: GI.
For assay [6], the system named is Echinochloa crus-galli. Briefly: Herbicidal activity against Echinochloa crus-galli (barnyard grass) plants assessed as germination rate at 1000 ug/ml measured on second day post dose (reference value: 100%).
The test system of assay [7] is Echinochloa crus-galli. Briefly: Herbicidal activity against Echinochloa crus-galli (barnyard grass) plants assessed as germination rate at 1000 ug/ml measured on first day post dose (reference value: 49.1 +/- 1.6%).
The test system of assay [8] is Digitaria sanguinalis. Kind of assay: Herbicidal activity against Digitaria sanguinalis (hairy crabgrass) assessed as germination rate at 1000 ug/ml measured on third day post dose (reference value: 100%).
For assay [9], the system named is Digitaria sanguinalis. Kind of assay: Herbicidal activity against Digitaria sanguinalis (hairy crabgrass) assessed as germination rate at 1000 ug/ml measured on first day post dose (reference value: 0%).
The test system of assay [10] is Digitaria sanguinalis. Kind of assay: Herbicidal activity against Digitaria sanguinalis (hairy crabgrass) assessed as germination rate at 1000 ug/ml measured on second day post dose (reference value: 100%).

We go through 25 compounds from ChEMBL document CHEMBL3046252, “Synthesis and herbicidal potential of substituted aurones” (2012).

Take `COc1cc(OC)c2c(c1)O/C(=C\c1cccc(F)c1)C2=O`: the inhibition of growth at 100 µg/mL in [1] worked out at 57.8%; in the assay on Echinochloa crus-galli [2], 14.4%. Moreover, the inhibition of growth at 1000 µg/mL in the assay with Echinochloa crus-galli [3] is 43.8%; in assay [4] it was 82.1%.
In the same order, the values of `COc1cc(/C=C2\Oc3cc(O)cc(O)c3C2=O)cc(OC)c1OC` are 0%, 5.2%, 68.7% and 83.8%.
As for `COc1cc(OC)c2c(c1)O/C(=C\c1ccc(F)cc1)C2=O`, the inhibition of growth at 100 µg/mL was determined as 64.2% in assay [1] and 0% in the assay with Echinochloa crus-galli [2]. Also, the inhibition of growth at 1000 µg/mL was 5% in the assay on Echinochloa crus-galli [3] and 74.2% in assay [4]. The inhibition of growth at 10 µg/mL in assay [5] is 50.6%.
For `Cc1ccc(/C=C2\Oc3cc(O)cc(O)c3C2=O)cc1`, the inhibition of growth at 100 µg/mL in assay [1] stood at 44.3%; in the assay on Echinochloa crus-galli [2] it was 5%. The inhibition of growth at 1000 µg/mL is 44.2% with Echinochloa crus-galli [3] and 78.2% in assay [4].
In the same order, the values of `O=C1/C(=C/c2ccc(F)cc2)Oc2cc(O)cc(O)c21` are 39.1%, 5%, 20% and 42.3%.
In the same order, the values of `CC(C)(C)c1ccc(/C=C2\Oc3cc(O)cc(O)c3C2=O)cc1` are 9.5%, 1.5%, 39.6% and 87.5%.
The corresponding values for `COc1ccc(/C=C2\Oc3cc(O)cc(O)c3C2=O)cc1` are 63.7%, 10%, 28.8% and 90.8%.
Take `O=C1/C(=C/c2ccc(O)cc2)Oc2cc(O)cc(O)c21`: the inhibition of growth at 100 µg/mL in assay [1] is 55.2%; with Echinochloa crus-galli [2], 15%. The results for the inhibition of growth at 1000 µg/mL (with Echinochloa crus-galli [3]; in assay [4]) were 57.9% and 72.1%, respectively.
`COc1cc(/C=C2\Oc3cc(O)cc(O)c3C2=O)ccc1OCc1ccccc1`: the inhibition of growth at 100 µg/mL in [1] is 46.8%; in the assay on Echinochloa crus-galli [2] it was 9.7%. Besides, the inhibition of growth at 1000 µg/mL in the assay on Echinochloa crus-galli [3] was 38.6%; in assay [4], 87.9%.
The corresponding values for `COc1cc(/C=C2\Oc3cc(O)cc(O)c3C2=O)cc(OC)c1OCc1ccccc1` are 48.8%, 15.2%, 36.9% and 75.9%.
In the same order, the values of `COc1cc(OC)c2c(c1)O/C(=C\c1cccc(OC)c1OC)C2=O` are 34.7%, 25.5%, 42.6% and 51.4%.
The corresponding values for `COc1cc(OC)c2c(c1)O/C(=C\c1ccc(OCc3ccccc3)c(OC)c1)C2=O` are 54%, 8.4%, 44.4% and 68%.
As for `CCOc1cc(OCC)c2c(c1)O/C(=C\c1ccccc1)C2=O`, the inhibition of growth at 100 µg/mL is 37.5% in assay [1] and 8% in the assay with Echinochloa crus-galli [2]. The figures for the inhibition of growth at 1000 µg/mL (in the assay with Echinochloa crus-galli [3]; in [4]) were 27.6% and 71.3%, respectively. For the same compound, the Activity came out at 100% in the assay on Echinochloa crus-galli [6] and 17.7% in the assay on Echinochloa crus-galli [7].
As for `CCOc1cc(OCC)c2c(c1)O/C(=C\c1ccc(OC)cc1)C2=O`, the inhibition of growth at 100 µg/mL stood at 0% in assay [1] and 10% in the assay with Echinochloa crus-galli [2]. Moreover, the inhibition of growth at 1000 µg/mL in the assay with Echinochloa crus-galli [3] amounted to 35%; in assay [4], 17.7%.
In the case of `COc1cc(/C=C2\Oc3cc(OC(=O)c4ccccc4)cc(OC(=O)c4ccccc4)c3C2=O)cc(OC)c1OCc1ccccc1`, the inhibition of growth at 100 µg/mL in [1] is 47.6%; in the assay on Echinochloa crus-galli [2], 5%. For the same compound, the inhibition of growth at 1000 µg/mL was found to be 19.6% in the assay on Echinochloa crus-galli [3] and 77.1% in [4].
`COc1cc2c(c(OC)c1C)C(=O)/C(=C/c1ccccc1)O2`: the values for the inhibition of growth at 100 µg/mL (in assay [1]; in the assay with Echinochloa crus-galli [2]) were 30.5% and 15%, respectively. The Activity amounted to 100% in the assay on Digitaria sanguinalis [8]; 100% with Echinochloa crus-galli [6]; 0% in the assay on Digitaria sanguinalis [9]; 19.5% in the assay with Echinochloa crus-galli [7]; 68.6% in the assay on Digitaria sanguinalis [10]. Moreover, the inhibition of growth at 1000 µg/mL was found to be 33.5% with Echinochloa crus-galli [3] and 82.6% in [4].
Consider `COc1ccc(/C=C2\Oc3cc(OC)c(C)c(OC)c3C2=O)cc1OC`, for which the inhibition of growth at 100 µg/mL was 40.1% in assay [1] and 16.8% in the assay on Echinochloa crus-galli [2]. For the same compound, the inhibition of growth at 1000 µg/mL in the assay on Echinochloa crus-galli [3] was 51.8%; in assay [4], 83.8%.
The corresponding values for `COc1cc2c(c(OC)c1C)C(=O)/C(=C/c1ccc(F)cc1)O2` are 46.6%, 0%, 15% and 59%.
In the same order, the values of `COc1cc2c(c(OC)c1C)C(=O)/C(=C/c1ccc(OCc3ccccc3)cc1)O2` are 14.2%, 2.3%, 40.8% and 91.9%.
In the case of `CN(C)c1ccc(/C=C2\Oc3cc(O)cc(O)c3C2=O)cc1`, the figures for the inhibition of growth at 100 µg/mL (in assay [1]; in the assay with Echinochloa crus-galli [2]) were 54.2% and 3%, respectively. In addition, the inhibition of growth at 1000 µg/mL in the assay with Echinochloa crus-galli [3] was 46.6%; in assay [4], 78.9%. Also, the Activity with Echinochloa crus-galli [6] was found to be 100%; in the assay with Digitaria sanguinalis [9], 0%; in the assay on Echinochloa crus-galli [7] it was 16.9%; with Digitaria sanguinalis [10], 27.8%.
Turning to `COc1ccc(/C=C2\Oc3cc(O)cc(O)c3C2=O)cc1OC`, the results for the inhibition of growth at 100 µg/mL (in assay [1]; in the assay with Echinochloa crus-galli [2]) were 48% and 12.3%, respectively. For the same compound, the inhibition of growth at 1000 µg/mL turned out to be 48.1% in the assay with Echinochloa crus-galli [3] and 82.6% in assay [4].
In the same order, the values of `COc1cc(/C=C2\Oc3cc(O)cc(O)c3C2=O)cc(OC)c1O` are 0%, 5%, 10% and 0%.
For the compound `O=C1/C(=C/c2ccccc2)Oc2cc(O)cc(O)c21`, the inhibition of growth at 100 µg/mL in assay [1] turned out to be 50.1%; in the assay on Echinochloa crus-galli [2], 19.9%. The figures for the Activity in the assay on Digitaria sanguinalis [8], with Echinochloa crus-galli [6] and in the assay on Echinochloa crus-galli [7] were 100%, 100% and 15.3%, respectively. Besides, the inhibition of growth at 1000 µg/mL in the assay with Echinochloa crus-galli [3] amounted to 49.3%; in assay [4], 96.5%.
`O=C1/C(=C/c2ccc3c(c2)OCO3)Oc2cc(O)cc(O)c21`: the inhibition of growth at 100 µg/mL in assay [1] came to 0%; with Echinochloa crus-galli [2], 5%. Moreover, the inhibition of growth at 1000 µg/mL worked out at 10% with Echinochloa crus-galli [3] and 8.7% in assay [4].
In the case of `COc1ccc(/C=C2\Oc3cc(OC)cc(OC)c3C2=O)cc1` [4,4',6-TRIMETHOXY-AURONE], the inhibition of growth at 100 µg/mL was 72.3% in assay [1] and 18.6% in the assay with Echinochloa crus-galli [2]. For the same compound, the inhibition of growth at 1000 µg/mL in the assay with Echinochloa crus-galli [3] amounted to 62.8%; in [4], 87.8%. Moreover, in assay [5], the inhibition of growth at 10 µg/mL was 63.2%.
